According to PubChem BioAssay AID256 (DTP/NCI, 2004):
Several values for one entry are separate records, joined by “and”; a condition that tells them apart may be missing. Identical values can stand only once. Inconclusive results and toxic doses are left out.

Tested on: CD2F1 mice, L1210 leukemia ip, survival T/C
Assay: NCI In Vivo Anticancer Drug Screen. Data for tumor model L1210 Leukemia (intraperitoneal) in CD2F1 (CDF1) mice
Details: higher = longer survival
Method in brief: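 In this screen, transplantable tumors were grown in mice given either the compound or its vehicle. Results were expressed as the treated measurement relative to the control measurement.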

[1] = endpoint: mean survival time, dose: 100.0 mg/kg/injection, schedule: Q01DX001 (ip), vehicle: saline with Tween-80
[2] = endpoint: mean survival time, dose: 100.0 mg/kg/injection, schedule: Q01DX009 (ip), vehicle: saline with Tween-80
[3] = endpoint: mean survival time, dose: 200.0 mg/kg/injection, schedule: Q01DX001 (ip), vehicle: saline with Tween-80
[4] = endpoint: mean survival time, dose: 400.0 mg/kg/injection, schedule: Q01DX001 (ip), vehicle: saline with Tween-80
[5] = endpoint: mean survival time, dose: 25.0 mg/kg/injection, schedule: Q01DX009 (ip), vehicle: saline with Tween-80
[6] = endpoint: mean survival time, dose: 50.0 mg/kg/injection, schedule: Q01DX009 (ip), vehicle: saline with Tween-80
[7] = endpoint: mean survival time, dose: 100.0 mg/kg/injection, schedule: Q04DX002 (ip), vehicle: saline with Tween-80
[8] = endpoint: mean survival time, dose: 400.0 mg/kg/injection, schedule: Q04DX002 (ip), vehicle: saline with Tween-80
[9] = endpoint: mean survival time, dose: 200.0 mg/kg/injection, schedule: Q01DX009 (ip), vehicle: saline with Tween-80
[10] = endpoint: mean survival time, dose: 400.0 mg/kg/injection, schedule: Q01DX009 (ip), vehicle: saline with Tween-80
[11] = endpoint: mean survival time, dose: 100.0 mg/kg/injection, schedule: Q04DX003 (ip), vehicle: saline with Tween-80
[12] = endpoint: mean survival time, dose: 200.0 mg/kg/injection, schedule: Q04DX003 (ip), vehicle: saline with Tween-80
[13] = endpoint: mean survival time, dose: 400.0 mg/kg/injection, schedule: Q04DX003 (ip), vehicle: saline with Tween-80

## OCC1OC(c2[nH]nc3c(NO)ncnc23)C(O)C1O (configuration not stated)
endpoint: mean survival time, dose: 75.0 mg/kg/injection, schedule: Q01DX001 (ip), vehicle: saline
  T/C: 107 % of control
endpoint: mean survival time, dose: 150.0 mg/kg/injection, schedule: Q01DX001 (ip), vehicle: saline
  T/C: 107 % of control

## CN1C=Cc2ccccc2C1
[1]
  T/C: 93 % of control
[2]
  T/C: 93 % of control
[3]
  T/C: 95 % of control
[4]
  T/C: 93 % of control

## OCC1OC(n2cnc3cc(Cl)c(Cl)cc32)C(O)C1O (configuration not stated)
endpoint: median survival time, dose: 25.0 mg/kg/injection, schedule: Q01DX009 (ip), vehicle: saline with Tween-80
  T/C: 97 % of control and 103 % of control
endpoint: median survival time, dose: 50.0 mg/kg/injection, schedule: Q01DX009 (ip), vehicle: saline with Tween-80
  T/C: 106 % of control
endpoint: median survival time, dose: 100.0 mg/kg/injection, schedule: Q01DX009 (ip), vehicle: saline with Tween-80
  T/C: 120 % of control and 110 % of control and 112 % of control
endpoint: median survival time, dose: 200.0 mg/kg/injection, schedule: Q01DX009 (ip), vehicle: saline with Tween-80
  T/C: 120 % of control

## c1cc2c(cc1NC1=NCCO1)CCC2
endpoint: mean survival time, dose: 6.25 mg/kg/injection, schedule: Q04DX003 (ip), vehicle: saline with Tween-80
  T/C: 103 % of control
endpoint: mean survival time, dose: 12.5 mg/kg/injection, schedule: Q04DX003 (ip), vehicle: saline with Tween-80
  T/C: 108 % of control
endpoint: mean survival time, dose: 25.0 mg/kg/injection, schedule: Q04DX003 (ip), vehicle: saline with Tween-80
  T/C: 111 % of control

## O=c1[nH]c(=O)n(O)c2nc[nH]c12
[5]
  T/C: 102 % of control
[6]
  T/C: 98 % of control

## Nc1cccc(Oc2ccc([N+](=O)[O-])cc2)c1
endpoint: mean survival time, dose: 100.0 mg/kg/injection, schedule: Q01DX001 (ip), vehicle: Klucel (hydroxypropylcellulose) (HPC)
  T/C: 97 % of control
endpoint: mean survival time, dose: 200.0 mg/kg/injection, schedule: Q01DX001 (ip), vehicle: Klucel (hydroxypropylcellulose) (HPC)
  T/C: 97 % of control

## ClCCN(CC#CCCCC#CCN(CCCl)CCCl)CCCl
endpoint: mean survival time, dose: 3.12 mg/kg/injection, schedule: Q01DX009 (ip), vehicle: saline
  T/C: 121 % of control
endpoint: mean survival time, dose: 6.25 mg/kg/injection, schedule: Q01DX009 (ip), vehicle: saline
  T/C: 119 % of control and 121 % of control
endpoint: mean survival time, dose: 25.0 mg/kg/injection, schedule: Q01DX009 (ip), vehicle: saline
  T/C: 162 % of control
endpoint: mean survival time, dose: 50.0 mg/kg/injection, schedule: Q01DX009 (ip), vehicle: saline
  T/C: 89 % of control and 104 % of control

## NC(=S)S
[7]
  T/C: 102 % of control
endpoint: mean survival time, dose: 200.0 mg/kg/injection, schedule: Q04DX002 (ip), vehicle: saline with Tween-80
  T/C: 113 % of control
[8]
  T/C: 102 % of control

## COc1cc(C(=O)C[n+]2ccccc2)ccc1O
[6]
  T/C: 103 % of control
[2]
  T/C: 87 % of control
[9]
  T/C: 96 % of control

## c1ccc2c(c1)[nH]c1c2c[n+]2c3c(cccc13)CCC2
endpoint: mean survival time, dose: 6.25 mg/kg/injection, schedule: Q01DX001 (ip), vehicle: saline
  T/C: 101 % of control
endpoint: mean survival time, dose: 12.5 mg/kg/injection, schedule: Q01DX001 (ip), vehicle: saline
  T/C: 107 % of control

## Cc1cn(C2CC(O)C(CO)O2)c(=O)nc1NC1CC1 (configuration not stated)
endpoint: median survival time, dose: 12.5 mg/kg/injection, schedule: Q01DX005 (ip), vehicle: water
  T/C: 102 % of control
endpoint: median survival time, dose: 25.0 mg/kg/injection, schedule: Q01DX005 (ip), vehicle: water
  T/C: 102 % of control
endpoint: median survival time, dose: 50.0 mg/kg/injection, schedule: Q01DX005 (ip), vehicle: water
  T/C: 104 % of control
endpoint: median survival time, dose: 100.0 mg/kg/injection, schedule: Q01DX005 (ip), vehicle: water
  T/C: 103 % of control
endpoint: median survival time, dose: 200.0 mg/kg/injection, schedule: Q01DX005 (ip), vehicle: water
  T/C: 102 % of control

## Nc1ccc2ccc(O)cc2c1
endpoint: mean survival time, dose: 100.0 mg/kg/injection, schedule: Q01DX009 (ip), vehicle: saline
  T/C: 97 % of control
endpoint: mean survival time, dose: 100.0 mg/kg/injection, schedule: Q04DX003 (ip), vehicle: saline
  T/C: 103 % of control
endpoint: mean survival time, dose: 200.0 mg/kg/injection, schedule: Q04DX003 (ip), vehicle: saline
  T/C: 108 % of control

## Cc1cc(O)c(O)c(C(C)(C)CC(C)(C)C)c1
endpoint: mean survival time, dose: 12.5 mg/kg/injection, schedule: Q01DX009 (ip), vehicle: saline + alcohol
  T/C: 100 % of control
endpoint: mean survival time, dose: 25.0 mg/kg/injection, schedule: Q01DX009 (ip), vehicle: saline + alcohol
  T/C: 97 % of control
endpoint: mean survival time, dose: 50.0 mg/kg/injection, schedule: Q01DX009 (ip), vehicle: saline + alcohol
  T/C: 103 % of control
endpoint: mean survival time, dose: 100.0 mg/kg/injection, schedule: Q04DX003 (ip), vehicle: saline + alcohol
  T/C: 105 % of control
endpoint: mean survival time, dose: 200.0 mg/kg/injection, schedule: Q04DX003 (ip), vehicle: saline + alcohol
  T/C: 103 % of control
endpoint: mean survival time, dose: 400.0 mg/kg/injection, schedule: Q04DX003 (ip), vehicle: saline + alcohol
  T/C: 100 % of control

## C=Cn1ccnc1
endpoint: mean survival time, dose: 25.0 mg/kg/injection, schedule: Q01DX001 (ip), vehicle: saline with Tween-80
  T/C: 103 % of control
endpoint: mean survival time, dose: 50.0 mg/kg/injection, schedule: Q01DX001 (ip), vehicle: saline with Tween-80
  T/C: 100 % of control
[1]
  T/C: 114 % of control and 118 % of control
[3]
  T/C: 97 % of control
[4]
  T/C: 101 % of control

## O=C(N/N=C/c1ccc([N+](=O)[O-])o1)c1ccccc1N=Cc1ccc([N+](=O)[O-])o1
[2]
  T/C: 96 % of control
[9]
  T/C: 98 % of control
[10]
  T/C: 104 % of control

## O=C(O)CC(=O)O.[NH-]CC[NH-].[Pt+2]
endpoint: mean survival time, dose: 25.0 mg/kg/injection, schedule: Q01DX009 (ip), vehicle: dextrose
  T/C: 100 % of control
endpoint: median survival time, dose: 40.0 mg/kg/injection, schedule: Q01DX009 (ip), vehicle: saline with Tween-80
  T/C: 89 % of control
endpoint: median survival time, dose: 50.0 mg/kg/injection, schedule: Q01DX001 (ip), vehicle: saline
  T/C: 111 % of control

## COC(O)C1OC(c2ccccc2)OC2C(CO)OC(c3ccccc3)OC12 (configuration not stated)
[2]
  T/C: 90 % of control
[9]
  T/C: 90 % of control
[10]
  T/C: 90 % of control

## CC(=O)OCC1(C)NC(=O)c2ccccc2O1 (configuration not stated)
endpoint: mean survival time, dose: 12.5 mg/kg/injection, schedule: Q01DX009 (ip), vehicle: saline with Tween-80
  T/C: 93 % of control and 112 % of control
[5]
  T/C: 93 % of control and 101 % of control
[6]
  T/C: 98 % of control and 103 % of control
[2]
  T/C: 118 % of control and 100 % of control
[9]
  T/C: 95 % of control and 106 % of control
[10]
  T/C: 115 % of control

## N#C/C(=C/Cc1ccccc1)Nc1ccccc1
[2]
  T/C: 97 % of control
endpoint: mean survival time, dose: 100.0 mg/kg/injection, schedule: Q04DX003 (ip), vehicle: saline sonified
  T/C: 97 % of control
[9]
  T/C: 101 % of control
endpoint: mean survival time, dose: 200.0 mg/kg/injection, schedule: Q04DX003 (ip), vehicle: saline sonified
  T/C: 97 % of control
[10]
  T/C: 87 % of control
endpoint: mean survival time, dose: 400.0 mg/kg/injection, schedule: Q04DX003 (ip), vehicle: saline sonified
  T/C: 96 % of control

## Nc1cccc(S(=O)(=O)NNc2cc(Cl)ccc2Cl)c1
[11]
  T/C: 102 % of control
[12]
  T/C: 96 % of control
[13]
  T/C: 95 % of control

## C=C(C)c1ccc(C)c(C)c1
[2]
  T/C: 93 % of control
[9]
  T/C: 98 % of control
[10]
  T/C: 114 % of control

## O=[N+]([O-])c1ccc(SC2CCC(Cl)C3CCCCC23)c([N+](=O)[O-])c1 (configuration not stated)
endpoint: mean survival time, dose: 25.0 mg/kg/injection, schedule: Q04DX002 (ip), vehicle: saline with Tween-80
  T/C: 93 % of control
endpoint: mean survival time, dose: 50.0 mg/kg/injection, schedule: Q04DX002 (ip), vehicle: saline with Tween-80
  T/C: 90 % of control
[7]
  T/C: 86 % of control and 93 % of control
[8]
  T/C: 86 % of control

## CCCCOC(=O)c1cc([N+](=O)[O-])c(Sc2ncnc3nc[nH]c23)c([N+](=O)[O-])c1
endpoint: mean survival time, dose: 0.63 mg/kg/injection, schedule: Q01DX005 (ip), vehicle: other
  T/C: 106 % of control
endpoint: mean survival time, dose: 1.25 mg/kg/injection, schedule: Q01DX005 (ip), vehicle: other
  T/C: 104 % of control
endpoint: mean survival time, dose: 2.5 mg/kg/injection, schedule: Q01DX005 (ip), vehicle: other
  T/C: 106 % of control
endpoint: mean survival time, dose: 5.0 mg/kg/injection, schedule: Q01DX005 (ip), vehicle: other
  T/C: 106 % of control
endpoint: mean survival time, dose: 10.0 mg/kg/injection, schedule: Q01DX005 (ip), vehicle: other
  T/C: 114 % of control
endpoint: mean survival time, dose: 15.0 mg/kg/injection, schedule: Q01DX005 (ip), vehicle: other
  T/C: 120 % of control

## CCOP(=S)(OCC)OP(=S)(OCC)OCC
endpoint: mean survival time, dose: 4.0 mg/kg/injection, schedule: Q04DX003 (ip), vehicle: other
  T/C: 95 % of control

## N=C(N)c1ccc(OCCCCOc2ccc(NC(=O)Nc3cc(S(=O)(=O)F)ccc3Cl)cc2)cc1
endpoint: mean survival time, dose: 75.0 mg/kg/injection, schedule: Q01DX001 (ip), vehicle: saline with Tween-80
  T/C: 95 % of control
endpoint: mean survival time, dose: 150.0 mg/kg/injection, schedule: Q01DX001 (ip), vehicle: saline with Tween-80
  T/C: 90 % of control
endpoint: mean survival time, dose: 300.0 mg/kg/injection, schedule: Q01DX001 (ip), vehicle: saline with Tween-80
  T/C: 95 % of control

## COc1cc(CO)ccc1OCc1ccccc1
[11]
  T/C: 98 % of control
[12]
  T/C: 96 % of control
[13]
  T/C: 105 % of control
